Legend:
E. coli (EC D1-209) = assay: Antibacterial MIC, gram negative; format: cell-based; details: CLSI methodology, 35° C., 18-24 hours; for MIC: Escherichia coli
S. aureus (SA RN450) = assay: Antibacterial MIC, gram positive; format: cell-based; details: CLSI methodology, 35° C., 18-24 hours; for MIC: Staphylococcus aureus

MIC (E. coli (EC D1-209)) [µg/mL]	MIC (S. aureus (SA RN450)) [µg/mL]	Compound	MIC Gram Negative (EC D1-209) (E. coli (EC D1-209))	MIC Gram Positive (SA RN450) (S. aureus (SA RN450))
–	–	CN(C)C1C(O)=C(C(N)=O)C(=O)C2(O)C(O)=C3C(=O)c4c(O)ccc(C(=O)Cn5ccnc5)c4CC3CC12 (stereo not drawn) [CF]	* (weak antibacterial activity (greater than about 8 μg/mL))	** (modest antibacterial activity (between about 4 and 8 μg/mL))
–	–	CN(C)CCC(=NOC(C)(C)C)c1ccc(O)c2c1CC1CC3C(N(C)C)C(O)=C(C(N)=O)C(=O)C3(O)C(O)=C1C2=O (stereo not drawn) [Compound CJ]	* (weak antibacterial activity (greater than about 8 μg/mL))	*** (Good antibacterial activity (e.g., less than about 4 μg/mL))
–	–	CN(C)c1cc(-c2ccc(CN3CCN(CCO)CC3)o2)c(O)c2c1C[C@H]1C[C@H]3[C@H](N(C)C)C(O)=C(C(N)=O)C(=O)[C@@]3(O)C(O)=C1C2=O [BA]	* (weak antibacterial activity (greater than about 8 μg/mL))	*** (Good antibacterial activity (e.g., less than about 4 μg/mL))
–	–	CC1=NCCN1CC(=O)c1ccc(O)c2c1CC1CC3C(N(C)C)C(O)=C(C(N)=O)C(=O)C3(O)C(O)=C1C2=O (stereo not drawn) [CH]	* (weak antibacterial activity (greater than about 8 μg/mL))	** (modest antibacterial activity (between about 4 and 8 μg/mL))
–	–	CN(C)CCN(C)C(=O)c1cccc(-c2ccc(O)c3c2CC2CC4C(N(C)C)C(O)=C(C(N)=O)C(=O)C4(O)C(O)=C2C3=O)c1 (stereo not drawn) [R]	* (weak antibacterial activity (greater than about 8 μg/mL))	*** (Good antibacterial activity (e.g., less than about 4 μg/mL))
–	–	C=CCNCC(=O)c1ccc(O)c2c1CC1CC3C(N(C)C)C(O)=C(C(N)=O)C(=O)C3(O)C(O)=C1C2=O (stereo not drawn) [BV]	* (weak antibacterial activity (greater than about 8 μg/mL))	*** (Good antibacterial activity (e.g., less than about 4 μg/mL))
–	–	CN1CCN(C(=O)c2cccc(-c3ccc(O)c4c3CC3CC5C(N(C)C)C(O)=C(C(N)=O)C(=O)C5(O)C(O)=C3C4=O)c2)CC1 (stereo not drawn) [D]	* (weak antibacterial activity (greater than about 8 μg/mL))	* (weak antibacterial activity (greater than about 8 μg/mL))
–	–	CN(C)c1cc(-c2cccc(C(N)=O)c2)c(O)c2c1CC1CC3C(N(C)C)C(O)=C(C(N)=O)C(=O)C3(O)C(O)=C1C2=O (stereo not drawn) [CD]	* (weak antibacterial activity (greater than about 8 μg/mL))	** (modest antibacterial activity (between about 4 and 8 μg/mL))
–	–	CN(C)CCCOc1ccc(-c2ccc(O)c3c2CC2CC4C(N(C)C)C(O)=C(C(N)=O)C(=O)C4(O)C(O)=C2C3=O)cn1 (stereo not drawn) [W]	*** (Good antibacterial activity (e.g., less than about 4 μg/mL))	*** (Good antibacterial activity (e.g., less than about 4 μg/mL))
–	–	COC(C)CNCC(=O)c1ccc(O)c2c1CC1CC3C(N(C)C)C(O)=C(C(N)=O)C(=O)C3(O)C(O)=C1C2=O (stereo not drawn) [CA]	* (weak antibacterial activity (greater than about 8 μg/mL))	*** (Good antibacterial activity (e.g., less than about 4 μg/mL))
–	–	CN(C)CCc1ccc(O)c2c1CC1CC3C(N(C)C)C(O)=C(C(N)=O)C(=O)C3(O)C(O)=C1C2=O (stereo not drawn) [Compound BD]	* (weak antibacterial activity (greater than about 8 μg/mL))	*** (Good antibacterial activity (e.g., less than about 4 μg/mL))
–	–	CN(C)C1C(O)=C(C(N)=O)C(=O)C2(O)C(O)=C3C(=O)c4c(O)ccc(C(=O)CNCC(C)(C)C)c4CC3CC12 (stereo not drawn) [BP]	* (weak antibacterial activity (greater than about 8 μg/mL))	*** (Good antibacterial activity (e.g., less than about 4 μg/mL))
–	–	CC(C)OC(=O)c1cccc(-c2ccc(O)c3c2CC2CC4C(N(C)C)C(O)=C(C(N)=O)C(=O)C4(O)C(O)=C2C3=O)c1 (stereo not drawn) [AU]	* (weak antibacterial activity (greater than about 8 μg/mL))	*** (Good antibacterial activity (e.g., less than about 4 μg/mL))
–	–	CCOC(=O)N1CCN(CC(=O)c2ccc(O)c3c2CC2CC4C(N(C)C)C(O)=C(C(N)=O)C(=O)C4(O)C(O)=C2C3=O)CC1 (stereo not drawn) [BR]	* (weak antibacterial activity (greater than about 8 μg/mL))	*** (Good antibacterial activity (e.g., less than about 4 μg/mL))
> 8	> 8	CN(C)CCNC(=O)c1cccc(-c2ccc(O)c3c2C[C@H]2C[C@H]4CC(O)=C(C(N)=O)C(=O)[C@@]4(O)C(O)=C2C3=O)c1 [Compound Z, (4aS,5aR,12aS)-7-[3-(2-Dimethylamino-ethylcarbamoyl)-phenyl]-3,10,12,12a-tetrahydroxy-1,11-dioxo-1,4,4a,5,5a,6,11,12a-octahydro-naphthacene-2-carboxylic Acid Amide]	–	–
–	–	CN(CCOC(C)(C)C)Cc1cccc(-c2ccc(O)c3c2CC2CC4C(N(C)C)C(O)=C(C(N)=O)C(=O)C4(O)C(O)=C2C3=O)c1 (stereo not drawn) [BM]	** (modest antibacterial activity (between about 4 and 8 μg/mL))	*** (Good antibacterial activity (e.g., less than about 4 μg/mL))
–	–	CN1CCN(C(=O)c2cccc(-c3ccc(O)c4c3CC3CC5C(N(C)C)C(O)=C(C(N)=O)C(=O)C5(O)C(O)=C3C4=O)c2)CC1 (stereo not drawn) [Compound C]	* (weak antibacterial activity (greater than about 8 μg/mL))	*** (Good antibacterial activity (e.g., less than about 4 μg/mL))
–	–	CN(C)Cc1ccc(-c2ccc(O)c3c2CC2CC4C(N(C)C)C(O)=C(C(N)=O)C(=O)C4(O)C(O)=C2C3=O)[nH]1 (stereo not drawn) [BK]	* (weak antibacterial activity (greater than about 8 μg/mL))	*** (Good antibacterial activity (e.g., less than about 4 μg/mL))
> 8	> 8	CN(C)CCNC(=O)c1cccc(-c2cc(N(C)C)c3c(c2O)C(=O)C2=C(O)[C@]4(O)C(=O)C(C(N)=O)=C(O)[C@@H](N(C)C)[C@@H]4C[C@@H]2C3)c1 [Compound V, (4S,4aS,5aR,12aS)-4,7-Bis-dimethylamino-9-[3-(2-dimethylamino-ethylcarbamoyl)-phenyl]-3,10,12,12a-tetrahydroxy-1,11-dioxo-1,4,4a,5,5a,6,11,12a-octahydro-naphthacene-2-carboxylic Acid Amide]	–	–
–	–	COc1ccc(CN(C)C)cc1-c1ccc(O)c2c1CC1CC3C(N(C)C)C(O)=C(C(N)=O)C(=O)C3(O)C(O)=C1C2=O (stereo not drawn) [AT]	*** (Good antibacterial activity (e.g., less than about 4 μg/mL))	*** (Good antibacterial activity (e.g., less than about 4 μg/mL))
–	–	CN(C)CCC(=O)c1ccc(O)c2c1CC1CC3C(N(C)C)C(O)=C(C(N)=O)C(=O)C3(O)C(O)=C1C2=O (stereo not drawn) [AV]	* (weak antibacterial activity (greater than about 8 μg/mL))	*** (Good antibacterial activity (e.g., less than about 4 μg/mL))
–	–	COCCNCc1ccc(-c2ccc(O)c3c2CC2CC4C(N(C)C)C(O)=C(C(N)=O)C(=O)C4(O)C(O)=C2C3=O)cc1 (stereo not drawn) [BG]	*** (Good antibacterial activity (e.g., less than about 4 μg/mL))	*** (Good antibacterial activity (e.g., less than about 4 μg/mL))
–	–	CN(C)C1C(O)=C(C(N)=O)C(=O)C2(O)C(O)=C3C(=O)c4c(O)ccc(C(=O)CNCC(F)(F)F)c4CC3CC12 (stereo not drawn) [BT]	* (weak antibacterial activity (greater than about 8 μg/mL))	*** (Good antibacterial activity (e.g., less than about 4 μg/mL))
–	–	CN(C)C1C(O)=C(C(N)=O)C(=O)C2(O)C(O)=C3C(=O)c4c(O)ccc(C(=O)CNCc5ccccn5)c4CC3CC12 (stereo not drawn) [BY]	* (weak antibacterial activity (greater than about 8 μg/mL))	*** (Good antibacterial activity (e.g., less than about 4 μg/mL))
–	–	CN(C)CCCNC(=O)c1ccc(-c2ccc(O)c3c2CC2CC4C(N(C)C)C(O)=C(C(N)=O)C(=O)C4(O)C(O)=C2C3=O)cc1 (stereo not drawn) [AA]	* (weak antibacterial activity (greater than about 8 μg/mL))	** (modest antibacterial activity (between about 4 and 8 μg/mL))
–	–	CN(C)CCNC(=O)c1cccc(-c2ccc(O)c3c2CC2CC4C(N(C)C)C(O)=C(C(N)=O)C(=O)C4(O)C(O)=C2C3=O)c1F (stereo not drawn) [AP]	* (weak antibacterial activity (greater than about 8 μg/mL))	*** (Good antibacterial activity (e.g., less than about 4 μg/mL))
–	–	CN(C)C1C(O)=C(C(N)=O)C(=O)C2(O)C(O)=C3C(=O)c4c(O)ccc(-c5cccc(C(N)=O)c5)c4CC3CC12 (stereo not drawn) [AE]	* (weak antibacterial activity (greater than about 8 μg/mL))	*** (Good antibacterial activity (e.g., less than about 4 μg/mL))
–	–	CC(=O)c1cccc(-c2ccc(O)c3c2CC2CC4C(N(C)C)C(O)=C(C(N)=O)C(=O)C4(O)C(O)=C2C3=O)c1 (stereo not drawn) [AS]	* (weak antibacterial activity (greater than about 8 μg/mL))	*** (Good antibacterial activity (e.g., less than about 4 μg/mL))
–	–	CN(C)C1C(O)=C(C(N)=O)C(=O)C2(O)C(O)=C3C(=O)c4c(O)ccc(-c5cnc6ccccc6c5)c4CC3CC12 (stereo not drawn) [G]	* (weak antibacterial activity (greater than about 8 μg/mL))	*** (Good antibacterial activity (e.g., less than about 4 μg/mL))
–	–	CN(C)CC(=O)N1CC=C(c2ccc(O)c3c2CC2CC4C(N(C)C)C(O)=C(C(N)=O)C(=O)C4(O)C(O)=C2C3=O)CC1 (stereo not drawn) [Compound AL]	* (weak antibacterial activity (greater than about 8 μg/mL))	*** (Good antibacterial activity (e.g., less than about 4 μg/mL))
